Counter-ions that a name gives are not always drawn.
melting point	SMILES
178 to 179 °C	COc1ccc(C2CC(C)(C)n3nc(C)c(C(=O)O)c3N2)cc1 (stereo not shown) [Example 950, 5-(4-methoxyphenyl)-2,7,7-trimethyl-4,5,6,7-tetrahydropyrazolo[1,5-a]pyrimidine-3-carboxylic acid]
223 to 224 °C	CCC(CC)(NC(=O)c1cnn2c1NC(c1ccccc1)CC2(C)C)c1ccc(Cl)nc1 (stereo not shown) [Example 573, N-(1-(6-chloro-3-pyridinyl)-1-ethylpropyl)-7,7-dimethyl-5-phenyl-4,5,6,7-tetrahydropyrazolo[1,5-a]pyrimidine-3-carboxamide]
213 to 214 °C	CCC(CC)(NC(=O)c1cnn2c1NC(c1ccccc1)CC2(C)C)c1ccc(OCC(=O)O)cc1 (stereo not shown) [Example 731, (4-(1-(((7,7-dimethyl-5-phenyl-4,5,6,7-tetrahydropyrazolo[1,5-a]pyrimidin-3-yl)carbonyl)amino)-1-ethylpropyl)phenoxy)acetic acid]
156 to 157 °C	CCC(CC)(NC(=O)c1cnn2c1NC(c1cccc(OC)n1)CC2(C)C)c1ccc(F)cc1 (stereo not shown) [Example 603, N-(1-ethyl-1-(4-fluorophenyl)propyl)-5-(6-methoxy-2-pyridinyl)-7,7-dimethyl-4,5,6,7-tetrahydropyrazolo[1,5-a]pyrimidine-3-carboxamide]
152 to 153 °C	CCC(CC)(NC(=O)c1cnn2c1NC(c1ccccc1)CC2(C)C)c1ccc(O)cc1 (stereo not shown) [Example 701, N-(1-ethyl-1-(4-hydroxyphenyl)propyl)-7,7-dimethyl-5-phenyl-4,5,6,7-tetrahydropyrazolo[1,5-a]pyrimidine-3-carboxamide]
218 to 219 °C	CCC(CC)(NC(=O)c1cnn2c1NC(c1ccccc1)CC2(C)C)c1cc(-c2ccc(F)cc2)n(C)n1 (stereo not shown) [Example 726, N-(1-ethyl-1-(5-(4-fluorophenyl)-1-methyl-1H-pyrazol-3-yl)propyl)-7,7-dimethyl-5-phenyl-4,5,6,7-tetrahydropyrazolo[1,5-a]pyrimidine-3-carboxamide]
188 to 189 °C	CCC(CC)(NC(=O)c1cnn2c1NC(c1ccc(OC)cc1)CC2(C)C)c1ccc(C)cc1 (stereo not shown) (as salt: HCl) [Example 960, N-[1-ethyl-1-(4-methylphenyl)propyl]-5-(4-methoxyphenyl)-7,7-dimethyl-4,5,6,7-tetrahydropyrazolo[1,5-a]pyrimidine-3-carboxamide]
172 to 173 °C	CCC1(NC(=O)c2cnn3c2NC(c2ccccc2)CC3(C)C)CC[S+]([O-])CC1 (stereo not shown) [Example 623, N-(4-ethyl-1-oxidotetrahydro-2H-thiopyran-4-yl)-7,7-dimethyl-5-phenyl-4,5,6,7-tetrahydropyrazolo[1,5-a]pyrimidine-3-carboxamide]
178.7 to 178.9 °C	CCC(CC)(NC(=O)c1cnn2c1NC(C1CCCCC1)CC2(C)C)c1ccc(C(F)(F)F)cc1 (stereo not shown) [Example 676, 5-cyclohexyl-N-(1-ethyl-1-(4-(trifluoromethyl)phenyl)propyl)-7,7-dimethyl-4,5,6,7-tetrahydropyrazolo[1,5-a]pyrimidine-3-carboxamide]
137 to 139 °C	CC1(C)CC(c2ccccc2)Nc2c(C(=O)O)c(OCCO)nn21 (stereo not shown) [Example 953, 2-(2-hydroxyethoxy)-7,7-dimethyl-5-phenyl-4,5,6,7-tetrahydropyrazolo[1,5-a]pyrimidine-3-carboxylic acid]
177 to 179 °C	O=C(O)c1cnn2c1NC(c1ccccc1Cl)CC2C(F)(F)F (stereo not shown) [Example 32, 5-(2-chlorophenyl)-7-(trifluoromethyl)-4,5,6,7-tetrahydropyrazolo[1,5-a]pyrimidine-3-carboxylic acid]
141 to 142 °C	CCOc1ccc(C(CC)(CC)NC(=O)c2cnn3c2NC(c2ccccc2)CC3(C)C)cc1 (stereo not shown) [Example 722, N-(1-(4-ethoxyphenyl)-1-ethylpropyl)-7,7-dimethyl-5-phenyl-4,5,6,7-tetrahydropyrazolo[1,5-a]pyrimidine-3-carboxamide]

The next lines start with the molecule.

SMILES	melting point
CCC(=O)Oc1ccc(C(CC)(CC)NC(=O)c2cnn3c2NC(c2ccccc2)CC3(C)C)cc1 (stereo not shown) [Example 729, 4-(1-(((7,7-dimethyl-5-phenyl-4,5,6,7-tetrahydropyrazolo[1,5-a]pyrimidin-3-yl)carbonyl)amino)-1-ethylpropyl)phenyl propionate]	172 to 173 °C
CC1(C)CC(c2ccccc2)Nc2c(C(=O)NC34CC5CC(CC(C5)C3)C4)cnn21 (stereo not shown) [Example 374, N-(1-adamantyl)-7,7-dimethyl-5-phenyl-4,5,6,7-tetrahydropyrazolo[1,5-a]pyrimidine-3-carboxamide]	235 to 236 °C
CCC(CC)(NC(=O)c1cnn2c1NC(c1cccc(OC)c1)CC2(C)C)c1ccc(C)cc1 (stereo not shown) (as salt: HCl) [Example 820, N-(1-ethyl-1-(4-methylphenyl)propyl)-5-(3-methoxyphenyl)-7,7-dimethyl-4,5,6,7-tetrahydropyrazolo[1,5-a]pyrimidine-3-carboxamide]	168 to 169 °C
CCC1(NC(=O)c2cnn3c2NC(c2ccccc2)CC3(C)C)CCSCC1 (stereo not shown) [Example 575, N-(4-ethyltetrahydro-2H-thiopyran-4-yl)-7,7-dimethyl-5-phenyl-4,5,6,7-tetrahydropyrazolo[1,5-a]pyrimidine-3-carboxamide]	97 to 98 °C
COc1cccc(C2CC(C)(C)n3nc(C)c(C(=O)O)c3N2)c1 (stereo not shown) [Example 947, 5-(3-methoxyphenyl)-2,7,7-trimethyl-4,5,6,7-tetrahydropyrazolo[1,5-a]pyrimidine-3-carboxylic acid]	151 to 152 °C
CC1(C)CC(c2ccccc2)Nc2c(C(=O)NC3(C#N)CCCCC3)cnn21 (stereo not shown) [Example 627, N-(1-cyanocyclohexyl)-7,7-dimethyl-5-phenyl-4,5,6,7-tetrahydropyrazolo[1,5-a]pyrimidine-3-carboxamide]	> 300 °C
CCC(CC)(NC(=O)c1c(C)nn2c1N[C@H](c1ccccc1)CC2(C)C)c1ccc(Cl)cc1 [Example 1041, (5S)-N-(1-(4-chlorophenyl)-1-ethylpropyl)-2,7,7-trimethyl-5-phenyl-4,5,6,7-tetrahydropyrazolo[1,5-a]pyrimidine-3-carboxamide]	131 to 132 °C
CCC(CC)(NC(=O)c1cnn2c1NC(c1ccccc1)CC2(C)C)c1ccc(SC)cc1 (stereo not shown) [Example 832, N-(1-ethyl-1-(4-(methylthio)phenyl)propyl)-7,7-dimethyl-5-phenyl-4,5,6,7-tetrahydropyrazolo[1,5-a]pyrimidine-3-carboxamide]	177 to 178 °C
Cc1ccc(-n2cc3c(n2)CCN(C(=O)c2cnn4c2NC(c2ccccc2)CC4C(F)(F)F)C3)cc1 (stereo not shown) [Example 276, 2-(4-methylphenyl)-5-((5-phenyl-7-(trifluoromethyl)-4,5,6,7-tetrahydropyrazolo[1,5-a]pyrimidin-3-yl)carbonyl)-4,5,6,7-tetrahydro-2H-pyrazolo[4,3-c]pyridine]	167 to 168 °C
CCC(CC)(NC(=O)c1c(C)nn2c1N[C@H](c1ccccc1Cl)CC2(C)C)c1ccc(C)cc1 (as salt: HCl) [Example 1090, (5S)-5-(2-chlorophenyl)-N-(1-ethyl-1-(4-methylphenyl)propyl)-2,7,7-trimethyl-4,5,6,7-tetrahydropyrazolo[1,5-a]pyrimidine-3-carboxamide]	173 to 174 °C
